The source made the active and inactive calls. The rule behind the calls is not given here.
How the values were obtained:
[1] = Cmax in Sprague-Dawley rat at 1 mg/kg, iv measured at 5 to 1440 min by LC-MS/MS analysis; assay type: ADME, organism-based; parameters: time upper 1440 min, dose 1 mg/kg, time lower 5 min, route iv; settings: in vivo
[2] = Drug distribution in Sprague-Dawley rat heart at 10 mg/kg, po measured after 8 hrs by LC-MS/MS analysis; assay type: ADME, organism-based; settings: read-out: Drug uptake
[3] = Drug distribution in Sprague-Dawley rat lung at 1 mg/kg, iv measured after 4 hrs by LC-MS/MS analysis; assay type: ADME, organism-based; settings: read-out: Drug uptake
[4] = Drug distribution in Sprague-Dawley rat liver at 10 mg/kg, po measured after 1 hrs by LC-MS/MS analysis; assay type: ADME, organism-based; settings: read-out: Drug uptake
[5] = Tmax in Sprague-Dawley rat at 1 mg/kg, iv measured at 5 to 1440 min by LC-MS/MS analysis; assay type: ADME, organism-based; settings: in vivo, time 5-1440 min
[6] = Drug distribution in Sprague-Dawley rat spleen at 1 mg/kg, iv measured after 0.5 hrs by LC-MS/MS analysis; assay type: ADME, organism-based; settings: read-out: Drug uptake
[7] = Drug distribution in Sprague-Dawley rat heart at 10 mg/kg, po measured after 1 hrs by LC-MS/MS analysis; assay type: ADME, organism-based; settings: read-out: Drug uptake
[8] = system: Mus musculus; experiment: Anti-inflammatory activity against LPS-induced […] mouse model of […] assessed as alleviation of thickened alveolar septa in lung at 20 mg/kg, po pre-treated with compound for 30 mins followed by LPS stimulation and measured after 6 hrs by H&E staining based histopathological analysis; assay type: functional, organism-based; settings: time 6.5 hrs
[9] = Oral bioavailability in Sprague-Dawley rat at 10 mg/kg measured at 15 to 1440 min by LC-MS/MS analysis; assay type: ADME, organism-based; settings: in vivo, time 15-1440 min
[10] = biological target: TLR4-MyD88 (Mus musculus) (UniProt Q9QUK6+P22366); experiment: Inhibition of MyD88/TLR4 interaction in LPS-stimulated mouse J774.A1 cells at 40 to 80 uM preincubated with compound for 2 hrs followed by LPS stimulation by co-immunoprecipitation analysis; assay type: cell-based; settings: dose 40-80 µM
TLR4-MyD88 (Mus musculus), sequence (P22366 whole entry, looked up): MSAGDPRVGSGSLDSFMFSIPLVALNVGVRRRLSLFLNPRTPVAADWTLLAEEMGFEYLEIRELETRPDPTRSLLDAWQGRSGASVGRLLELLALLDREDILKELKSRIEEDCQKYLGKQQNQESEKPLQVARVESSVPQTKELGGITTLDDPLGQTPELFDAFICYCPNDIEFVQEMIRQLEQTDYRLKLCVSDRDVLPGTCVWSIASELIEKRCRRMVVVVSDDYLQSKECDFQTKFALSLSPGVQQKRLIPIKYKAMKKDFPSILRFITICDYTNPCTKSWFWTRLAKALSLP
TLR4-MyD88 (Mus musculus), sequence (Q9QUK6 whole entry, looked up): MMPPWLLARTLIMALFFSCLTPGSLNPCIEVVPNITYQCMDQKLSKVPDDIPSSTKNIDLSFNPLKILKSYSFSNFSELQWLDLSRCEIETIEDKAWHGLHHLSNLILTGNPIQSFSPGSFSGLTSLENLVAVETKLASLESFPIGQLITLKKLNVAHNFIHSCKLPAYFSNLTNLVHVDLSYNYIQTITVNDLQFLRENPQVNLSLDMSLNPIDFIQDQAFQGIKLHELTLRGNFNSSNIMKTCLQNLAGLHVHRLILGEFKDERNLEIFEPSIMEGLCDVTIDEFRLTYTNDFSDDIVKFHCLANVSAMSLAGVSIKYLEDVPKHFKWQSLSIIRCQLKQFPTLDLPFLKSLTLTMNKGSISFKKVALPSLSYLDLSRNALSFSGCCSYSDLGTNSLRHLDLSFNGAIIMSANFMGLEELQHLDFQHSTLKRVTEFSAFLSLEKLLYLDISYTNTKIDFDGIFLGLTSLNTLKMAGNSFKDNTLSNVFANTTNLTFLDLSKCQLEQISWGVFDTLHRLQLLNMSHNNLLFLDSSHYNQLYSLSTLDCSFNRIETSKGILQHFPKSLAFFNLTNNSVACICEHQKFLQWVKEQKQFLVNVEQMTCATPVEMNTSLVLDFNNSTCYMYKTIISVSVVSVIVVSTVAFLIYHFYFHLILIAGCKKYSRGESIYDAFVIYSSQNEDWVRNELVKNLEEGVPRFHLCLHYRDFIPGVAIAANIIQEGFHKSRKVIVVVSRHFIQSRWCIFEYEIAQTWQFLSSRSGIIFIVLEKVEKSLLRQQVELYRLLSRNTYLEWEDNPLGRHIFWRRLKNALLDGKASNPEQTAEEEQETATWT

[11] = Cmax in Sprague-Dawley rat at 10 mg/kg, po measured at 15 to 1440 min by LC-MS/MS analysis; assay type: ADME, organism-based; parameters: time lower 15 min, dose 10 mg/kg, time upper 1440 min, route po; settings: in vivo
[12] = system: Mus musculus; experiment: Anti-inflammatory activity against LPS-induced […] mouse model of […] assessed as decrease in TNF-alpha level in serum at 20 mg/kg, po pre-treated with compound for 30 mins followed by LPS stimulation and measured after 6 hrs; assay type: functional, organism-based; settings: time 6.5 hrs
[13] = system: J774.A1; experiment: Anti-inflammatory activity in mouse J774.A1 cells assessed as inhibition of LPS-induced IL-6 production pre-stimulated with LPS for 24 hrs followed by compound addition and measured after 0.5 hrs by ELISA analysis; assay type: functional, cell-based
[14] = Drug distribution in Sprague-Dawley rat kidney at 1 mg/kg, iv measured after 4 hrs by LC-MS/MS analysis; assay type: ADME, organism-based; settings: read-out: Drug uptake
[15] = Drug distribution in Sprague-Dawley rat spleen at 1 mg/kg, iv measured after 4 hrs by LC-MS/MS analysis; assay type: ADME, organism-based; settings: read-out: Drug uptake
[16] = system: THP-1; experiment: Anti-inflammatory activity in human THP-1 cells assessed as inhibition of LPS-stimulated TNF-alpha release at 1.25 to 20 uM by ELISA analysis; assay type: functional, cell-based; settings: dose 1.25-20 µM
[17] = AUC (0 to t) in Sprague-Dawley rat at 10 mg/kg, po measured at 15 to 1440 min by LC-MS/MS analysis; assay type: ADME, organism-based; parameters: time 15-1440 min, dose 10 mg/kg, route po; settings: in vivo
[18] = Drug distribution in Sprague-Dawley rat liver at 10 mg/kg, po measured after 8 hrs by LC-MS/MS analysis; assay type: ADME, organism-based; settings: read-out: Drug uptake
[19] = system: Mus musculus; experiment: Anti-inflammatory activity against LPS-induced […] mouse model of […] assessed as alleviation of inflammatory infiltration in lung at 20 mg/kg, po pre-treated with compound for 30 mins followed by LPS stimulation and measured after 6 hrs by H&E staining based histopathological analysis; assay type: functional, organism-based; settings: time 6.5 hrs
[20] = Drug distribution in Sprague-Dawley rat heart at 1 mg/kg, iv measured after 0.5 hrs by LC-MS/MS analysis; assay type: ADME, organism-based; settings: read-out: Drug uptake
[21] = system: Mus musculus; experiment: Anti-inflammatory activity against LPS-induced […] mouse model of […] assessed as alleviation of interstitial edema in lung at 20 mg/kg, po pre-treated with compound for 30 mins followed by LPS stimulation and measured after 6 hrs by H&E staining based histopathological analysis; assay type: functional, organism-based; settings: time 6.5 hrs
[22] = Drug distribution in Sprague-Dawley rat spleen at 10 mg/kg, po measured after 3 hrs by LC-MS/MS analysis; assay type: ADME, organism-based; settings: read-out: Drug uptake
[23] = system: Mus musculus; experiment: Anti-inflammatory activity against LPS-induced […] mouse model of […] assessed as alleviation of lung edema by measuring decrease in wet/dry weight ratio at 20 mg/kg, po pre-treated with compound for 30 mins followed by LPS stimulation and measured after 6 hrs; assay type: functional, organism-based; settings: time 6.5 hrs
[24] = system: Mus musculus; experiment: Anti-inflammatory activity against LPS-induced […] mouse model of […] assessed as decrease in IL-6 mRNA level in lung at 20 mg/kg, po pre-treated with compound for 30 mins followed by LPS stimulation and measured after 6 hrs by qRT-PCR analysis; assay type: functional, organism-based; settings: time 6.5 hrs
[25] = Toxicity in ICR mouse assessed as effect on body weight change at 20 to 400 mg/kg, po measured upto 21 days; assay type: organism-based; settings: in vivo, 504 h, dose 20-400 mg/kg, time < 21 day
[26] = Drug distribution in Sprague-Dawley rat liver at 1 mg/kg, iv measured after 2 hrs by LC-MS/MS analysis; assay type: ADME, organism-based; settings: read-out: Drug uptake
[27] = Drug distribution in Sprague-Dawley rat spleen at 10 mg/kg, po measured after 8 hrs by LC-MS/MS analysis; assay type: ADME, organism-based; settings: read-out: Drug uptake
[28] = Drug distribution in Sprague-Dawley rat kidney at 10 mg/kg, po measured after 1 hrs by LC-MS/MS analysis; assay type: ADME, organism-based; settings: read-out: Drug uptake
[29] = Drug distribution in Sprague-Dawley rat spleen at 10 mg/kg, po measured after 1 hrs by LC-MS/MS analysis; assay type: ADME, organism-based; settings: read-out: Drug uptake
[30] = Drug distribution in Sprague-Dawley rat lung at 10 mg/kg, po measured after 8 hrs by LC-MS/MS analysis; assay type: ADME, organism-based; settings: read-out: Drug uptake
[31] = Drug distribution in Sprague-Dawley rat kidney at 10 mg/kg, po measured after 3 hrs by LC-MS/MS analysis; assay type: ADME, organism-based; settings: read-out: Drug uptake
[32] = system: Mus musculus; experiment: Anti-inflammatory activity against LPS-induced […] mouse model of […] assessed as decrease in TNF-alpha level in BALF at 20 mg/kg, po pre-treated with compound for 30 mins followed by LPS stimulation and measured after 6 hrs; assay type: functional, organism-based; settings: time 6.5 hrs
[33] = system: Mus musculus; experiment: Anti-inflammatory activity against LPS-induced […] mouse model of […] assessed as alleviation of tissue destruction in lung at 20 mg/kg, po pre-treated with compound for 30 mins followed by LPS stimulation and measured after 6 hrs by H&E staining based histopathological analysis; assay type: functional, organism-based; settings: time 6.5 hrs
[34] = system: Mus musculus; experiment: Anti-inflammatory activity against LPS-induced […] mouse model of […] assessed as decrease in IL-6 level in serum at 20 mg/kg, po pre-treated with compound for 30 mins followed by LPS stimulation and measured after 6 hrs; assay type: functional, organism-based; settings: time 6.5 hrs
[35] = Drug distribution in Sprague-Dawley rat liver at 1 mg/kg, iv measured after 0.5 hrs by LC-MS/MS analysis; assay type: ADME, organism-based; settings: read-out: Drug uptake
[36] = Drug distribution in Sprague-Dawley rat heart at 1 mg/kg, iv measured after 4 hrs by LC-MS/MS analysis; assay type: ADME, organism-based; settings: read-out: Drug uptake

COc1ccc(NS(=O)(=O)c2ccc(N3CCN(Cc4cccc([N+](=O)[O-])c4)CC3)c([N+](=O)[O-])c2)cn1
Cmax [1]: 2770 ng/mL
concentration at 8 h [2]: 452 ng/g
concentration at 4 h [3]: 502 ng/g
concentration at 1 h [4]: 267 ng/g
Tmax [5]: 6 min
concentration at 0.5 h [6]: 32.2 ng/g
concentration at 1 h [7]: 10.6 ng/g
Activity [8]: Active
F [9]: 14.2%
inhibition [10]: Active
Cmax [11]: 2210 ng/mL
Activity [12]: Active
IC50 [13]: 2170 nM
concentration at 4 h [14]: 250 ng/g
concentration at 4 h [15]: 113 ng/g
inhibition [16]: Active
AUCt [17]: 68163 ng·h/mL
concentration at 8 h [18]: 249 ng/g
Activity [19]: Active
concentration at 0.5 h [20]: 52.1 ng/g
Activity [21]: Active
concentration at 3 h [22]: 32 ng/g
Activity [23]: Active
Activity [24]: Active
Activity [25]: Non-Toxic
concentration at 2 h [26]: 192 ng/g
concentration at 8 h [27]: 137 ng/g
concentration at 1 h [28]: 4.15 ng/g
concentration at 1 h [29]: 78.8 ng/g
concentration at 8 h [30]: 527 ng/g
concentration at 3 h [31]: 3.31 ng/g
Activity [32]: Active
Activity [33]: Active
Activity [34]: Active
concentration at 0.5 h [35]: 166 ng/g
concentration at 4 h [36]: 275 ng/g
